According to US8258134B2, “Pyridazinone glucokinase activators” (Hoffmann-La Roche Inc., priority 2008, dated 2012):

Legend:
Lean C57BL/6J mice = test: Glucokinase activator in vivo screen, blood glucose in lean mice; conditions: Mus musculus, vs control at 4 hours post 50 mg/kg oral dose, two hour fast, read-out: % glucose lowering @ 4 H
Procedure: Glucokinase Activator in vivo Screen Protocol in Lean and Diet Induced Obese Mice: Lean or Diet-induced Obese (DIO) C57BL/6J mice were orally dosed via gavage with Glucokinase (GK) activator following a two hour fasting period. Blood glucose determinations were made at various (e.g. 0, 1, 2, 4 and 8 hours post-oral gavage) times during the study.
C57Bl/6J mice were obtained from Jackson Laboratory (Bar Harbor, Me.) and were maintained in a light-dark cycle with lights on from 0600-1800 hr. For studies in lean mice, the mice were received at age ten weeks and given ad libitum access to control diet (LabDiet 5001 chow, PMI Nutrition, Brentwood, Mo.), and were at least age 11 weeks at the time of study. For studies in the DIO model, the mice were received at age five weeks and given ad libitum access to Bio-Serv F3282 High Fat Diet (Frenchtown, N.J.), and were at least age 16 weeks at the time of study. The experiments were conducted during the light phase of the light-dark cycle. Mice (n=6) are weighed and fasted for a two hour period prior to oral treatment. GK activators are formulated in Gelucire vehicle (Ethanol:Gelucire44/14:PEG400q.s. 4:66:30 v/w/v. For studies in lean mice, the mice were dosed orally with 5.0 μL per gram of body weight (i.e. 5 ml/kg×10.0 mg/ml formulation to equal a 50 mg/kg dose). For studies in DIO mice, the mice were dosed orally with 5.0 μL per gram of body weight (i.e. 5.0 ml/kg×5 mg/ml formulation to equal a 25 mg/kg dose). Immediately prior to dosing, a pre-dose (time zero) blood glucose reading was acquired by snipping off a small portion of the animal's tail and collecting 15 μL blood into a heparinized capillary tube for analysis. Following GK activator administration, additional blood glucose readings were taken at various time points post dose from the same tail wound. Results were interpreted by comparing the mean blood glucose values of vehicle treated mice with GK activator treated mice over the study period.
The Table below provides data for % glucose lowering of a representative number of compounds of the present invention vs control at 4 hours post 50 mg/kg dose in lean C57BL/6J mice: […]

[1] = molecular target: T1, Recombinant human liver GK1 (GST-GK) (Homo sapiens, UniProt P35557); test: Glucokinase in vitro assay (G6PDH-coupled NADH generation, OD340); assay type: biochemical; conditions: 5 mM D-glucose, 30° C., pH 7.1, 10% DMSO
T1 construct: made in house; host or cells: E. coli
T1 sequence (P35557 1-466 isoform P35557-2): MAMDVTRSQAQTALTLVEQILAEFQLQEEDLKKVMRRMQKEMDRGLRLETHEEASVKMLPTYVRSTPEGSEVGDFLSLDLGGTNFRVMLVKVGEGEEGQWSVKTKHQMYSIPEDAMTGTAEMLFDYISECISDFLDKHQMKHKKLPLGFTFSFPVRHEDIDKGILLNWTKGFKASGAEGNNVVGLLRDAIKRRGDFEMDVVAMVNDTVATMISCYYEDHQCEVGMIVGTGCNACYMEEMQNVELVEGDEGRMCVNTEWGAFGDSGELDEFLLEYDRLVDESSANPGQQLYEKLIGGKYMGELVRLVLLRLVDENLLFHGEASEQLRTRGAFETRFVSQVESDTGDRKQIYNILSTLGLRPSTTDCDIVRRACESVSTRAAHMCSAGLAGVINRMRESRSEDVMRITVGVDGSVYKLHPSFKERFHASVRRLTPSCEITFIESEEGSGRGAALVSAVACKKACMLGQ
How it was run: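 GST-tagged recombinant GK1 expressed in E. coli, run at 30° C, pH 7.1 Hepes with 5 mM D-glucose, 1 mM ATP and 1.8 mM NAD, G6PDH-coupled. Compounds were in 10% DMSO final, with a 10 min pre-incubation before enzyme addition. OD340/min rate measured; SC1.5 is the activator concentration giving a 50% increase in activity.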

Row | SC1.5 average (concentration of activator that produced a 50% increase in the activity of GK) [1] [µM] | SMILES | change in vivo at 50 mg/kg (Lean C57BL/6J mice) [%]
1 | 0.14 | CC(C)(O)Cn1ccc(NC(=O)C(CC2CCCC2)n2ncc(Oc3ccccc3F)cc2=O)n1 (centres unmarked) [Example 19, 3-Cyclopentyl-2-[4-(2-fluoro-phenoxy)-6-oxo-6H-pyridazin-1-yl]-N-[1-(2-hydroxy-2-methyl-propyl)-1H-pyrazol-3-yl]-propionamide] | -49.2
2 | 0.347 | CC(C)(O)Cn1ccc(NC(=O)C(CC2CCCC2)n2ncc(Oc3ccccc3C3CCCC3)cc2=O)n1 (centres unmarked) [Example 22, 3-Cyclopentyl-2-[4-(2-cyclopentyl-phenoxy)-6-oxo-6H-pyridazin-1-yl]-N-[1-(2-hydroxy-2-methyl-propyl)-1H-pyrazol-3-yl]-propionamide] | -31.6
3 | 0.174 | Cc1ccccc1Oc1cnn(C(CC2CCCC2)C(=O)Nc2ccn(CC(C)(C)O)n2)c(=O)c1 (centres unmarked) [Example 24, 3-Cyclopentyl-N-[1-(2-hydroxy-2-methyl-propyl)-1H-pyrazol-3-yl]-2-(6-oxo-4-o-tolyloxy-6H-pyridazin-1-yl)-propionamide] | -62.1
4 | 0.227 | CC(C)(O)Cn1ccc(NC(=O)C(CC2CCCC2)n2ncc(Oc3ccccc3C#N)cc2=O)n1 (centres unmarked) [Example 29, 2-[4-(2-Cyano-phenoxy)-6-oxo-6H-pyridazin-1-yl]-3-cyclopentyl-N-[1-(2-hydroxy-2-methyl-propyl)-1H-pyrazol-3-yl]-propionamide] | -27.8
5 | 0.356 | CC(C)(O)Cn1ccc(NC(=O)C(CC2CCCC2)n2ncc(Oc3cc(F)ccc3F)cc2=O)n1 (centres unmarked) [Example 33, 3-Cyclopentyl-2-[4-(2,5-difluoro-phenoxy)-6-oxo-6H-pyridazin-1-yl]-N-[1-(2-hydroxy-2-methyl-propyl)-1H-pyrazol-3-yl]-propionamide] | -30.2
6 | 0.063 | CC(C)(O)Cn1ccc(NC(=O)C(CC2CCCC2)n2ncc(Oc3c(F)cccc3F)cc2=O)n1 (centres unmarked) [Example 36, 3-Cyclopentyl-2-[4-(2,6-difluoro-phenoxy)-6-oxo-6H-pyridazin-1-yl]-N-[1-(2-hydroxy-2-methyl-propyl)-1H-pyrazol-3-yl]-propionamide] | -60.9
7 | 0.312 | O=C(O)c1ccc(NC(=O)C(CC2CCCC2)n2ncc(Oc3ccccc3C3CCCC3)cc2=O)nc1 (centres unmarked) [Example 71, 6-{3-Cyclopentyl-2-[4-(2-cyclopentyl-phenoxy)-6-oxo-6H-pyridazin-1-yl]-propionylamino}-nicotinic acid] | -61.7
